In US20240383915A1, “OXAZEPINE COMPOUNDS AND USES THEREOF IN THE TREATMENT OF CANCER” (Genentech, Inc., priority 2021, published 2024) one finds IC50 data, which are given here for 14 compounds.

Usually pIC50 stands for the IC50 on a negative log10 scale, so that one unit is a factor of ten.

pIC50: −log10 of the molar value.

One assay has as its target KRas (Homo sapiens (Human), UniProt P01116). Nature of the assay: KRas GDP HTRF (BODIPY-GDP exchange TR-FRET). The class given is biochemical. Here is the method: KRAS Biochemical Assay—BODIPY-GDP Exchange TR-FRET. Biochemical compound potencies were assessed by evaluating inhibition of SOS1-mediated nucleotide exchange in KRAS G12D. The SOS1-promoted exchange of fluorescently-labeled GDP (BODIPY-GDP) was monitored by time-resolved fluorescence resonance energy transfer (TR-FRET). Compounds solubilized in DMSO were dispensed as concentration series into 384-well white assay plates. […] The reaction was initiated with the addition of 5 μL of 3 nM recombinant human SOS1 and 300 nM BODIPY-GDP in assay buffer. After a 60-minute incubation, the fluorescence was measured with excitation at 337 nm and emission at 490 and 520 nm. The TR-FRET ratio was determined as the fluorescence at 520 nm divided by the fluorescence at 490 nm multiplied by 10,000. […] The normalized TR-FRET results were plotted against compound concentration, and the data fit to a 4-parameter Hill equation to determine the IC50 values.
(In TR-FRET formats the signal depends on donor and acceptor labels being close together.)

Another assay concerns the target KRas(G12V) (Homo sapiens (Human), UniProt P01116, G12V). Nature of the assay: KRas(G12V) GDP HTRF (BODIPY-GDP exchange TR-FRET). The class given is biochemical.

KRas, sequence (P01116-2 other isoform, or with tags, fused parts or gaps): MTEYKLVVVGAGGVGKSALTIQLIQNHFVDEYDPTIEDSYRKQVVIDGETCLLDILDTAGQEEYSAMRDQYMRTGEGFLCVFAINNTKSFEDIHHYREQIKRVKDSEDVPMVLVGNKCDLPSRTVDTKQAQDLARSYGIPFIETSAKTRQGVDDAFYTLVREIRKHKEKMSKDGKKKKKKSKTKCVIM
KRas(G12V), sequence (P01116-2 other isoform, or with tags, fused parts or gaps G12V): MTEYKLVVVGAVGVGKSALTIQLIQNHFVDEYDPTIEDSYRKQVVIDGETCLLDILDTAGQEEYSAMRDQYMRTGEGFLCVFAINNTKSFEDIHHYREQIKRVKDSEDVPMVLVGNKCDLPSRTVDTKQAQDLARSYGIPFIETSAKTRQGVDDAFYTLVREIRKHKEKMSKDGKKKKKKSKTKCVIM

`Cc1cc(N)nc(-c2c(Cl)c3c4c(nc(OC[C@@H]5CCCN5CC(F)F)nc4c2F)N([C@H](C)c2nccnc2N)CCO3)c1C(F)(F)F` (atropisomer, axis not shown) [Example 158a, 3-((R)-1-((R)-9-(6-amino-4-methyl-3-(trifluoromethyl)pyridin-2-yl)-8-chloro-2-(((S)-1-(2,2-difluoroethyl)pyrrolidin-2-yl)methoxy)-10-fluoro-5,6-dihydro-4H-[1,4]oxazepino[5,6,7-de]quinazolin-4-yl)ethyl)pyrazin-2-amine]: the negative logarithm of the IC50 (pIC50) was 8.27 against KRas and 9.12 against KRas(G12V).
In the same order, the values of `Cc1cc(N)nc(-c2c(Cl)c3c4c(nc(OC[C@@H]5CCCN5CC(F)F)nc4c2F)N([C@H](C)c2nccnc2N)CCO3)c1C(F)(F)F` (atropisomer, axis not shown) [Example 158b, 3-((R)-1-((S)-9-(6-amino-4-methyl-3-(trifluoromethyl)pyridin-2-yl)-8-chloro-2-(((S)-1-(2,2-difluoroethyl)pyrrolidin-2-yl)methoxy)-10-fluoro-5,6-dihydro-4H-[1,4]oxazepino[5,6,7-de]quinazolin-4-yl)ethyl)pyrazin-2-amine] are 6.17 and 7.01.
In the same order, the values of `Cc1cc(N)nc(-c2c(Cl)c3c4c(nc(OC[C@@]56CCCN5CC(F)(F)C6)nc4c2F)N([C@H](C)c2nccnc2N)CCO3)c1C(F)(F)F` (atropisomer, axis not shown) [Example 165a, 3-((R)-1-((R)-9-(6-amino-4-methyl-3-(trifluoromethyl)pyridin-2-yl)-8-chloro-2-(((S)-2,2-difluorotetrahydro-1H-pyrrolizin-7a(5H)-yl)methoxy)-10-fluoro-5,6-dihydro-4H-[1,4]oxazepino[5,6,7-de]quinazolin-4-yl)ethyl)pyrazin-2-amine] are 8.67 and 9.16.
The corresponding values for `Cc1cc(N)nc(-c2c(Cl)c3c4c(nc(OC[C@@]56CCCN5CC(F)(F)C6)nc4c2F)N([C@H](C)c2nccnc2N)CCO3)c1C(F)(F)F` (atropisomer, axis not shown) [Example 165b, 3-((R)-1-((S)-9-(6-amino-4-methyl-3-(trifluoromethyl)pyridin-2-yl)-8-chloro-2-(((S)-2,2-difluorotetrahydro-1H-pyrrolizin-7a(5H)-yl)methoxy)-10-fluoro-5,6-dihydro-4H-[1,4]oxazepino[5,6,7-de]quinazolin-4-yl)ethyl)pyrazin-2-amine] are 5.70 and 6.05.
On to `Cc1cc(N)nc(-c2c(Cl)c3c4c(nc(OC[C@]56CCCN5CC(F)(F)C6)nc4c2F)N([C@H](C)c2nccnc2N)CCO3)c1C(F)(F)F` (atropisomer, axis not shown) [Example 166a, 3-((R)-1-((R)-9-(6-amino-4-methyl-3-(trifluoromethyl)pyridin-2-yl)-8-chloro-2-(((R)-2,2-difluorotetrahydro-1H-pyrrolizin-7a(5H)-yl)methoxy)-10-fluoro-5,6-dihydro-4H-[1,4]oxazepino[5,6,7-de]quinazolin-4-yl)ethyl)pyrazin-2-amine], for which the pIC50 against KRas was 8.69; against KRas(G12V), 9.25.
The corresponding values for `Cc1cc(N)nc(-c2c(Cl)c3c4c(nc(OC[C@]56CCCN5CC(F)(F)C6)nc4c2F)N([C@H](C)c2nccnc2N)CCO3)c1C(F)(F)F` (atropisomer, axis not shown) [Example 166b, 3-((R)-1-((S)-9-(6-amino-4-methyl-3-(trifluoromethyl)pyridin-2-yl)-8-chloro-2-(((R)-2,2-difluorotetrahydro-1H-pyrrolizin-7a(5H)-yl)methoxy)-10-fluoro-5,6-dihydro-4H-[1,4]oxazepino[5,6,7-de]quinazolin-4-yl)ethyl)pyrazin-2-amine] are 5.76 and 6.19.
The corresponding values for `Cc1cc(N)nc(-c2c(Cl)c3c4c(nc(OC[C@@H]5C[C@@]6(CN5C)CC6(F)F)nc4c2F)N([C@H](C)c2nccnc2N)CCO3)c1C(F)(F)F` (atropisomer, axis not shown) [Example 171a, 3-((R)-1-((R)-9-(6-amino-4-methyl-3-(trifluoromethyl)pyridin-2-yl)-8-chloro-2-(((3S,6S)-1,1-difluoro-5-methyl-5-azaspiro[2.4]heptan-6-yl)methoxy)-10-fluoro-5,6-dihydro-4H-[1,4]oxazepino[5,6,7-de]quinazolin-4-yl)ethyl)pyrazin-2-amine] are 8.66 and 9.15.
For `Cc1cc(N)nc(-c2c(Cl)c3c4c(nc(OC[C@@H]5C[C@@]6(CN5C)CC6(F)F)nc4c2F)N([C@H](C)c2nccnc2N)CCO3)c1C(F)(F)F` (atropisomer, axis not shown) [Example 171b, 3-((R)-1-((S)-9-(6-amino-4-methyl-3-(trifluoromethyl)pyridin-2-yl)-8-chloro-2-(((3S,6S)-1,1-difluoro-5-methyl-5-azaspiro[2.4]heptan-6-yl)methoxy)-10-fluoro-5,6-dihydro-4H-[1,4]oxazepino[5,6,7-de]quinazolin-4-yl)ethyl)pyrazin-2-amine], the pIC50 against KRas is 5.68; on KRas(G12V) it was 6.05.
Turning to `Cc1cc(N)nc(-c2c(Cl)c3c4c(nc(OC[C@H]5CC[C@@H]6CO[C@@H](C)CN56)nc4c2F)N([C@H](C)c2cccnc2N)CCO3)c1C(F)(F)F` (atropisomer, axis not shown; (aR)) [Example 93b, 6-((R)-4-((R)-1-(2-aminopyridin-3-yl)ethyl)-8-chloro-10-fluoro-2-(((3S,6R,8aR)-3-methylhexahydro-1H-pyrrolo[2,1-c][1,4]oxazin-6-yl)methoxy)-5,6-dihydro-4H-[1,4]oxazepino[5,6,7-de]quinazolin-9-yl)-4-methyl-5-(trifluoromethyl)pyridin-2-amine], the negative-log IC50 (pIC50) at KRas is 9.46; at KRas(G12V) it was 9.85.
The corresponding values for `Cc1cc(N)nc(-c2c(Cl)c3c4c(nc(OC[C@H]5CC[C@@H]6CN(CC(F)(F)F)CCN56)nc4c2F)N([C@H](C)c2cccnc2N)CCO3)c1C(F)(F)F` (atropisomer, axis not shown; (aR)) [Example 129b, 6-((R)-4-((R)-1-(2-aminopyridin-3-yl)ethyl)-8-chloro-10-fluoro-2-(((6R,8aR)-2-(2,2,2-trifluoroethyl)octahydropyrrolo[1,2-a]pyrazin-6-yl)methoxy)-5,6-dihydro-4H-[1,4]oxazepino[5,6,7-de]quinazolin-9-yl)-4-methyl-5-(trifluoromethyl)pyridin-2-amine] are 9.41 and 9.49.
In the same order, the values of `Cc1cc(N)nc(-c2c(Cl)c3c4c(nc(OC[C@@H]5CC[C@H]6CO[C@@H](C)CN56)nc4c2F)N([C@H](C)c2cccnc2N)CCO3)c1C(F)(F)F` (atropisomer, axis not shown; (aS)) [Example 93a, 6-((R)-4-((R)-1-(2-aminopyridin-3-yl)ethyl)-8-chloro-10-fluoro-2-(((3S,6S,8aS)-3-methylhexahydro-1H-pyrrolo[2,1-c][1,4]oxazin-6-yl)methoxy)-5,6-dihydro-4H-[1,4]oxazepino[5,6,7-de]quinazolin-9-yl)-4-methyl-5-(trifluoromethyl)pyridin-2-amine] are 9.70 and 10.05.
With `Cc1cc(N)nc(-c2c(Cl)c3c4c(nc(OC[C@@H]5CC[C@H]6CO[C@H](C)CN56)nc4c2F)N([C@H](C)c2cccnc2N)CCO3)c1C(F)(F)F` (atropisomer, axis not shown; (aS)) [Example 93c, 6-((R)-4-((R)-1-(2-aminopyridin-3-yl)ethyl)-8-chloro-10-fluoro-2-(((3R,6S,8aS)-3-methylhexahydro-1H-pyrrolo[2,1-c][1,4]oxazin-6-yl)methoxy)-5,6-dihydro-4H-[1,4]oxazepino[5,6,7-de]quinazolin-9-yl)-4-methyl-5-(trifluoromethyl)pyridin-2-amine], the pIC50 against KRas is 9.84; against KRas(G12V) it was 10.15.
For `C[C@H](c1cccnc1N)N1CCOc2c(Cl)c(-c3cccc4sc(N)nc34)c(F)c3nc(OC[C@@]45CCCN4C[C@H](F)C5)nc1c23` (atropisomer, axis not shown; (aS)) [Example 100a, 4-((R)-4-((R)-1-(2-aminopyridin-3-yl)ethyl)-8-chloro-10-fluoro-2-(((2R,7aS)-2-fluorotetrahydro-1H-pyrrolizin-7a(5H)-yl)methoxy)-5,6-dihydro-4H-[1,4]oxazepino[5,6,7-de]quinazolin-9-yl)benzo[d]thiazol-2-amine], the pIC50 against KRas and against KRas(G12V) was 10.52 throughout.
Turning to `C[C@H](c1cccnc1N)N1CCOc2c(Cl)c(-c3cccc4sc(N)nc34)c(F)c3nc(OC[C@@]45CCCN4C[C@H](F)C5)nc1c23` (atropisomer, axis not shown; (aS)) [Example 100b, 4-((S)-4-((R)-1-(2-aminopyridin-3-yl)ethyl)-8-chloro-10-fluoro-2-(((2R,7aS)-2-fluorotetrahydro-1H-pyrrolizin-7a(5H)-yl)methoxy)-5,6-dihydro-4H-[1,4]oxazepino[5,6,7-de]quinazolin-9-yl)benzo[d]thiazol-2-amine], the results for the pIC50 against KRas and on KRas(G12V) were 9.45 and 9.14, respectively.
